Read-outs that look alike come from different tables or passages of the source.
Molecular target: T1, mouse Oat1 (mOat1; Oat1/Slc22a6) (Mus musculus, UniProt Q8VC69)
T1 sequence (Q8VC69 1-545): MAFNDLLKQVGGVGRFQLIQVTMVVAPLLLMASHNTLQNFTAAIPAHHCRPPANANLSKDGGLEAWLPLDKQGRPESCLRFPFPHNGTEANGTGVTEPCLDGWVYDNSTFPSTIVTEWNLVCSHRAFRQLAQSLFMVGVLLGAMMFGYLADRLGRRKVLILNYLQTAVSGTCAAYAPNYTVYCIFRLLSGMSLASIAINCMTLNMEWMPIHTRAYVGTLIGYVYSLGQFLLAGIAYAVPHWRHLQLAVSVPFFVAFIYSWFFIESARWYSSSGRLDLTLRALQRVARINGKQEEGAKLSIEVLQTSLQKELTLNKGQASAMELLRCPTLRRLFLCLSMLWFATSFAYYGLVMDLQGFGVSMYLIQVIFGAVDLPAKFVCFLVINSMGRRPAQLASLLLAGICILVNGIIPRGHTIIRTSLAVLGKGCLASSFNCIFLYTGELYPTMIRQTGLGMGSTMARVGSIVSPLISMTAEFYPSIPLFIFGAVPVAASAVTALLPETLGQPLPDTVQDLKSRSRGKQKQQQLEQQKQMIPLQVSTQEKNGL
Assay: inhibition of 6-carboxyfluorescein uptake, Xenopus oocytes
Assay type: cell-based

SMILES	IC50 (30 μM 6-carboxyfluorescein tracer, 1 h incubation)	IC50
O=c1c2ncccc2[nH]c2c([N+](=O)[O-])c(O)c([N+](=O)[O-])c(O)c12 [CAS 5435-73-4]	22 µM	–
Nc1ccccc1C(=O)C[C@H](N)C(=O)O [kynurenine]	–	12 µM
O=C(O)c1cc(O)c2cccc(O)c2n1 [xanthurenic acid]	–	50 µM
